Assay results reported in PubChem BioAssay AID1963959 (Molecular Pharmacology Branch, DTP, NCI, 2024).

Test system: T-47D spheroids with HUVEC/MSC, viability
Assay: Anticancer human tumor T-47D cell line growth inhibition [PI3K];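 also: spheroids exposed to agents for seven days before reading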;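 as to viability, T/C: percent of DMSO vehicle control luminescence so 100% = untreated growth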
Conditions: for IC50: curve of first compound; for viability, T/C: stronger effect = lower value
From the text: Combinatorial screen of targeted agents with the PI3K inhibitors inavolisib, alpelisib, duvelisib, and copanlisib in multi-cell type tumor spheroids
A high-throughput screen of multi-cell type tumor spheroids was designed to identify active combinations of targeted small molecules and PI3K pathway inhibitors. Complex spheroids include a stromal component modeled by human endothelial cells (HUVEC) and fibroblasts modeled by human mesenchymal stem cells (MSCs). The concentration ranges selected for each drug and investigational agent were based upon clinically achievable concentrations if the clinical Cmax of the agent was known.
Compounds. The drugs and investigational agents: inavolisib (NSC800729), alpelisib (NSC765974), duvelisib (NSC772469), copanlisib (NSC816437), ipatasertib (NSC767898), afuresertib (NSC778305), talazoparib (NSC767125), sapanisertib (NSC764658), selumetinib (NSC741078), tovorafenib (DAY101, NSC766906), vemurafenib (NSC761431), ravoxertinib (NSC781343), sotorasib (NSC818433), MRTX1133 (NSC 836407), abemaciclib (NSC 768073), palbociclib (NSC758247), venetoclax (NSC 766270), SY5609 (NSC837396), enzalutamide (NSC755605), and darolutamide (NSC825331), were obtained from the National Cancer Institute (NCI) Developmental Therapeutics Program Chemical Repository. The FDA-approved anticancer drug set is available from the NCI Developmental Therapeutics Program. […] The stock solutions were prepared in dimethyl sulfoxide (DMSO, Sigma-Aldrich, St. Louis, MO, cat. D2650) at 800-fold the tested concentration and stored at -70 degrees C prior to their use. All drugs and investigational agents were tested over a range starting from a high concentration at or near the clinical Cmax and decreasing in half-log increments. If the clinical Cmax for an agent had not been determined, the highest concentration tested was 10 microM.
Cell Culture. All cells were maintained in an incubator at 37 degrees C and 5% CO2 with 95% humidity. The PDC lines were cultured according to standard operating procedures established by the NCI PDMR (https://pdmr.cancer.gov/sops/default.htm). All PDCs were thawed and cultured in Matrigel-coated flasks prepared with a working solution of 1X Ham's F-12 nutrient mix, without supplementation (Invitrogen, Waltham, MA, cat. 11765054), 100 U/mL penicillin-streptomycin (Invitrogen, cat. 15140122), and 2.5% Matrigel (Corning Inc., Corning, NY, cat. 354248) for the first three passages. The 354836-022-R-J1-PDC, 475296-252-R-J1-PDC, and 997726-040-R-J2-PDC lines were cultured in 6A media, which includes advanced DMEM/F-12 (Thermo Fisher Scientific, cat. 12634028), 10 mM HEPES (Thermo Fisher Scientific, cat. 15630080), 1X GlutaMAX supplement (Thermo Fisher Scientific, cat. 35050061), 0.1 mg/mL primocin (InvivoGen, San Diego, CA, cat. ant-pm-2), 10% defined fetal bovine serum, heat inactivated (HyClone Laboratories Inc., Logan, UT, cat. SH30070.03HI), 50% L-WRN conditioned media (ATCC, cat. CRL-3276), 1.25 mM N-Acetyl-L-cysteine (Sigma-Aldrich, cat. A9165), 10 mM nicotinamide (Sigma-Aldrich, cat. N0636), 1X B-27 supplement (Thermo Fisher Scientific, cat. 17504044), 1X N-2 supplement (Thermo Fisher Scientific, cat. 17502048), and 10 microM Y-27632 dihydrochloride (Tocris Bioscience, Bristol, United Kingdom, cat. 1254). The 624824-186-R-J2-PDC line was cultured in 6C/Colon 1B media, which includes all 6A media components plus 50 ng/mL human EGF recombinant protein (Thermo Fisher Scientific, cat. PHG0311). […]

[1] = second compound 0.0316 µM, first compound 0.0316 µM
[2] = second compound 0.0316 µM, first compound 0.1 µM
[3] = second compound 0.1 µM, first compound 0.0316 µM
[4] = second compound 0.1 µM, first compound 0.1 µM
[5] = second compound 0.316 µM, first compound 0.0316 µM
[6] = second compound 0.316 µM, first compound 0.1 µM
[7] = second compound 1 µM, first compound 0.0316 µM
[8] = second compound 1 µM, first compound 0.1 µM

## CC(=O)c1c(C)c2cnc(Nc3ccc(N4CCNCC4)cn3)nc2n(C2CCCC2)c1=O + CC(Nc1ncnc2nc[nH]c12)c1cc2cccc(Cl)c2c(=O)n1-c1ccccc1
Second compound 0.0316 µM
  IC50: > 0.1 µM
Second compound 0.1 µM
  IC50: > 0.1 µM
Second compound 0.316 µM
  IC50: > 0.1 µM
Second compound 1 µM
  IC50: > 0.1 µM
Second compound 3.16 µM
  IC50: > 0.1 µM
Second compound 10 µM
  IC50: > 0.1 µM
Second compound 0.0316 µM, first compound 0.000316 µM
  viability, T/C: 96%
Second compound 0.0316 µM, first compound 0.001 µM
  viability, T/C: 99%
Second compound 0.0316 µM, first compound 0.00316 µM
  viability, T/C: 100%
Second compound 0.0316 µM, first compound 0.01 µM
  viability, T/C: 91.2%
[1]
  viability, T/C: 86.5%
[2]
  viability, T/C: 71.3%
Second compound 0.1 µM, first compound 0.000316 µM
  viability, T/C: 91.2%
Second compound 0.1 µM, first compound 0.001 µM
  viability, T/C: 90.2%
Second compound 0.1 µM, first compound 0.00316 µM
  viability, T/C: 96.1%
Second compound 0.1 µM, first compound 0.01 µM
  viability, T/C: 73.3%
[3]
  viability, T/C: 100%
[4]
  viability, T/C: 83.6%
Second compound 0.316 µM, first compound 0.000316 µM
  viability, T/C: 92.8%
Second compound 0.316 µM, first compound 0.001 µM
  viability, T/C: 93.7%
Second compound 0.316 µM, first compound 0.00316 µM
  viability, T/C: 82%
Second compound 0.316 µM, first compound 0.01 µM
  viability, T/C: 90.6%
[5]
  viability, T/C: 86.9%
[6]
  viability, T/C: 84%
Second compound 1 µM, first compound 0.000316 µM
  viability, T/C: 80.1%
Second compound 1 µM, first compound 0.001 µM
  viability, T/C: 73.8%
Second compound 1 µM, first compound 0.00316 µM
  viability, T/C: 79.6%
Second compound 1 µM, first compound 0.01 µM
  viability, T/C: 89%
[7]
  viability, T/C: 76.6%
[8]
  viability, T/C: 80.6%
Second compound 3.16 µM, first compound 0.000316 µM
  viability, T/C: 81.2%
Second compound 3.16 µM, first compound 0.001 µM
  viability, T/C: 88.6%
Second compound 3.16 µM, first compound 0.00316 µM
  viability, T/C: 100%
Second compound 3.16 µM, first compound 0.01 µM
  viability, T/C: 85.1%
Second compound 3.16 µM, first compound 0.0316 µM
  viability, T/C: 85.8%
Second compound 3.16 µM, first compound 0.1 µM
  viability, T/C: 69.8%
Second compound 10 µM, first compound 0.000316 µM
  viability, T/C: 88.4%
Second compound 10 µM, first compound 0.001 µM
  viability, T/C: 76.3%
Second compound 10 µM, first compound 0.00316 µM
  viability, T/C: 78%
Second compound 10 µM, first compound 0.01 µM
  viability, T/C: 70.8%
Second compound 10 µM, first compound 0.0316 µM
  viability, T/C: 80.6%
Second compound 10 µM, first compound 0.1 µM
  viability, T/C: 65.2%

## CCCS(=O)(=O)Nc1ccc(F)c(C(=O)c2c[nH]c3ncc(-c4ccc(Cl)cc4)cc23)c1F + CC(Nc1ccc2c(c1)OCCn1cc(N3C(=O)OCC3C(F)F)nc1-2)C(N)=O
Second compound 0.00316 µM
  IC50: 9.16 µM
Second compound 0.01 µM
  IC50: 9.58 µM
Second compound 0.0316 µM
  IC50: 8.53 µM
Second compound 0.1 µM
  IC50: 6.95 µM
Second compound 0.316 µM
  IC50: 5.04 µM
Second compound 1 µM
  IC50: 3.21 µM
Second compound 0.00316 µM, first compound 0.0316 µM
  viability, T/C: 99.3%
Second compound 0.00316 µM, first compound 0.1 µM
  viability, T/C: 87.8%
Second compound 0.00316 µM, first compound 0.316 µM
  viability, T/C: 108%
Second compound 0.00316 µM, first compound 1 µM
  viability, T/C: 79.2%
Second compound 0.00316 µM, first compound 3.16 µM
  viability, T/C: 103%
Second compound 0.00316 µM, first compound 10 µM
  viability, T/C: 46.3%
Second compound 0.01 µM, first compound 0.0316 µM
  viability, T/C: 99%
Second compound 0.01 µM, first compound 0.1 µM
  viability, T/C: 89.1%
Second compound 0.01 µM, first compound 0.316 µM
  viability, T/C: 98.5%
Second compound 0.01 µM, first compound 1 µM
  viability, T/C: 70.7%
Second compound 0.01 µM, first compound 3.16 µM
  viability, T/C: 87.8%
Second compound 0.01 µM, first compound 10 µM
  viability, T/C: 47%
[1]
  viability, T/C: 80.3%
[2]
  viability, T/C: 90.2%
Second compound 0.0316 µM, first compound 0.316 µM
  viability, T/C: 102%
Second compound 0.0316 µM, first compound 1 µM
  viability, T/C: 97.3%
Second compound 0.0316 µM, first compound 3.16 µM
  viability, T/C: 98.7%
Second compound 0.0316 µM, first compound 10 µM
  viability, T/C: 43%
[3]
  viability, T/C: 83.2%
[4]
  viability, T/C: 82.8%
Second compound 0.1 µM, first compound 0.316 µM
  viability, T/C: 97.7%
Second compound 0.1 µM, first compound 1 µM
  viability, T/C: 91.3%
Second compound 0.1 µM, first compound 3.16 µM
  viability, T/C: 74.2%
Second compound 0.1 µM, first compound 10 µM
  viability, T/C: 38.9%
[5]
  viability, T/C: 69.3%
[6]
  viability, T/C: 79.3%
Second compound 0.316 µM, first compound 0.316 µM
  viability, T/C: 66.9%
Second compound 0.316 µM, first compound 1 µM
  viability, T/C: 70.9%
Second compound 0.316 µM, first compound 3.16 µM
  viability, T/C: 55.8%
Second compound 0.316 µM, first compound 10 µM
  viability, T/C: 41.4%
[7]
  viability, T/C: 48.5%
[8]
  viability, T/C: 55.1%
Second compound 1 µM, first compound 0.316 µM
  viability, T/C: 69.4%
Second compound 1 µM, first compound 1 µM
  viability, T/C: 51.5%
Second compound 1 µM, first compound 3.16 µM
  viability, T/C: 49.1%
Second compound 1 µM, first compound 10 µM
  viability, T/C: 35.5%
